Each structure is given as a SMILES string.

One may read the IC50 as the concentration needed to halve the response being measured.

Assay [1] has as its target T1, GSK3a (GST-full length GSK3a) (Homo sapiens, UniProt P49840).
T1 construct: GST-full length GSK3a [SignalChem G08-10G]; purchased SignalChem G08-10G
Nature of the assay: GSK3a TR-FRET kinase inhibition assay. The following applies: 1 mM ATP; Table 5; read-out: GSK3α TR-FRET 1 mM ATP Average IC50. The class given is biochemical. On the procedure: (§1) TR-FRET assay was performed in a white, 384 well, low volume, flat bottom plate (Grenier). After a 30 minute preincubation in assay buffer with the indicated concentration of compound, the kinase activity was initiated by the addition of the substrates. 1 nM GSK3a (GST-full length GSK3a [SignalChem G08-10G]) or 1 nM GSK3b (GST-full length GSK3b: [SignalChem G08-9G]) were then incubated at ambient temperature for 100 minutes in 10 μl of 50 mM Tris, pH 7.5, 20 mM MgCl2, 0.05 mM DTT, 100 μg/ml BSA and 1% DMSO, with 200 nM biotinylated peptide substrate (biotinylated and S645 phosphorylated glycogen synthase 631-650) and ATP (e.g., at 2 μM, 4 μM, 10 μM, 100 μM, or 1 mM). The kinase activity was quenched with 2 μl of 250 mM EDTA. A 10 μl volume of 40 nM Strepavidin-d2, 2 nM […] antibody in TR-FRET Detection Buffer (Invitrogen) was then added. After 60 min at room temperature the plate was read on Envision plate reader using Ex: 340 nm, Em: 615 nm and […]. The normalized 665/615 Signal ratio versus log compound concentration was analyzed by XLFIT to yield IC50 values.

The target in assay [2] is T2, GSK3b (GST-full length GSK3b) (Homo sapiens, UniProt P49841).
T2 construct: GST-full length GSK3b: [SignalChem G08-9G]; purchased SignalChem G08-9G
T2 sequence (P49841 whole entry): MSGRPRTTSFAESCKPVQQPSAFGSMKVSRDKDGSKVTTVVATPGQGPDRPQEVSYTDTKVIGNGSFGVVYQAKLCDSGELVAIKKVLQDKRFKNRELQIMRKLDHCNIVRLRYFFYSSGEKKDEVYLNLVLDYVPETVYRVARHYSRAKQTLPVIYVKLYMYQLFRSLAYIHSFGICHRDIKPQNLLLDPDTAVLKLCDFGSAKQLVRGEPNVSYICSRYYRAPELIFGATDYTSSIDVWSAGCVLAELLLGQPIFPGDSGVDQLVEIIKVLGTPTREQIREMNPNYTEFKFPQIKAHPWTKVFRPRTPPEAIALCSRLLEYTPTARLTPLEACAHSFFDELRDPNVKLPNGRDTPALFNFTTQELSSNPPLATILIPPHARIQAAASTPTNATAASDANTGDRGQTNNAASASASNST
In words: GSK3b TR-FRET kinase inhibition assay. The format is biochemical. The following applies: 1 mM ATP; Table 5; read-out: GSK3β TR-FRET 1 mM ATP Average IC50. On the procedure: as §1

T1 sequence (P49840 whole entry): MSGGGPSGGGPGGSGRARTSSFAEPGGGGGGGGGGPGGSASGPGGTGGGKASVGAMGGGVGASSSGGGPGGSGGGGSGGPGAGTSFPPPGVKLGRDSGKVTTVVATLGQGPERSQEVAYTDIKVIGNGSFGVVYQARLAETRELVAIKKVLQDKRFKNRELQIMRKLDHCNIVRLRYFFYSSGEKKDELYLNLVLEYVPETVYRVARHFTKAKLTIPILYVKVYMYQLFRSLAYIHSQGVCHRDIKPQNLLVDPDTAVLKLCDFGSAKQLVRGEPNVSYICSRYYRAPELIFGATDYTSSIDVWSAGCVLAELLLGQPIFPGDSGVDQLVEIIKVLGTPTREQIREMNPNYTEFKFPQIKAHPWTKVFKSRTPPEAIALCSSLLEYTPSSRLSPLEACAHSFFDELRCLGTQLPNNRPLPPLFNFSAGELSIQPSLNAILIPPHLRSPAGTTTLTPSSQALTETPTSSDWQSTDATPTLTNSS

Take `CC1(C)CC(=O)C2=C(C1)Nc1ncc(CF)c(C#N)c1C2(C)c1ccccc1` (single isomer, unassigned) [614A]: the IC50 in assay [1] and in assay [2] was 5 to 20 µM each time.

Consider `CN1C(=O)C2=C(CC1(C)C)Nc1ncc(F)c(C#N)c1C2(C)c1ccccc1` (single isomer, unassigned) [615A], for which the IC50 in assay [1] and in assay [2] was 1 to 5 µM throughout.

`CN1C(=O)C2=C(CC1(C)C)Nc1ncc(F)c(C#N)c1C2(C)c1ccccc1` (single isomer, unassigned) [615B]: the IC50 in assay [1] and in assay [2] was at most 0.1 µM throughout.

Regarding `CC1(C)CC(=O)C2=C(C1)Nc1ncc(F)c(C#N)c1C2(C)c1cccc(F)c1` (single isomer, unassigned) [618A], the IC50 in assay [1] and in assay [2] was 5 to 20 µM in each case.

As for `CC1(C)CC(=O)C2=C(C1)Nc1ncc(F)c(C#N)c1C2(C)c1cccc(F)c1` (single isomer, unassigned) [618B], the IC50 in assay [1] and in assay [2] was 0.1 to 1 µM in each case.

As for `CC1(C)CC(=O)C2=C(C1)Nc1ncc(C3CC3)c(C#N)c1C2(C)c1ccccc1` (single isomer, unassigned) [619A], the IC50 in assay [1] and in assay [2] was 5 to 20 µM each time.

In the case of `CC1(C)CC(=O)C2=C(C1)Nc1ncc(C3CC3)c(C#N)c1C2(C)c1ccccc1` (single isomer, unassigned) [619B], the IC50 in assay [1] and in assay [2] was 5 to 20 µM in each case.

For the molecule `C=C(C)c1cnc2c(c1C#N)C(C)(c1ccccc1)C1=C(CC(C)(C)CC1=O)N2` (single isomer, unassigned) [620A], the IC50 in assay [1] and in assay [2] was 5 to 20 µM throughout.

Take `C=C(C)c1cnc2c(c1C#N)C(C)(c1ccccc1)C1=C(CC(C)(C)CC1=O)N2` (single isomer, unassigned) [620B]: the half-maximal inhibitory concentration (IC50) in assay [1] and in assay [2] was 5 to 20 µM each time.

In the case of `CC(=O)c1cnc2c(c1C#N)C(C)(c1ccccc1)C1=C(CC(C)(C)CC1=O)N2` (single isomer, unassigned) [621A], the IC50 in assay [1] and in assay [2] was 5 to 20 µM each time.

For the molecule `CC(C)c1cnc2c(c1C#N)C(C)(c1ccccc1)C1=C(CC(C)(C)CC1=O)N2` (single isomer, unassigned) [622B], the IC50 in assay [1] and in assay [2] was 5 to 20 µM each time.

As for `CC1(C)CC(=O)C2=C(C1)Nc1ncc(F)cc1C2(C)c1cccc(C(F)F)c1` (single isomer, unassigned) [623B], the IC50 in assay [1] and in assay [2] was 0.1 to 1 µM in each case.

As to `CN(C)c1cnc2c(c1C#N)C(C)(c1ccccc1)C1=C(CC(C)(C)CC1=O)N2` (single isomer, unassigned) [624A], the IC50 in assay [1] and in assay [2] was 5 to 20 µM each time.

As for `CN(C)c1cnc2c(c1C#N)C(C)(c1ccccc1)C1=C(CC(C)(C)CC1=O)N2` (single isomer, unassigned) [624B], the results for the IC50 in assay [1] and in assay [2] were above 20 µM and 5 to 20 µM, respectively.

Turning to `CC1(C)CC2=C(C(=O)N1)C(C)(c1ccccc1)c1cc(C(F)(F)F)cnc1N2` (single isomer, unassigned) [625A], the IC50 in assay [1] and in assay [2] was 1 to 5 µM in each case.

Take `COc1cnc2c(c1C1CC1)C(C)(c1ccccc1)C1=C(CC(C)(C)CC1=O)N2` (single isomer, unassigned) [626A]: the IC50 in assay [1] and in assay [2] was 5 to 20 µM throughout.

`COc1cnc2c(c1C1CC1)C(C)(c1ccccc1)C1=C(CC(C)(C)CC1=O)N2` (single isomer, unassigned) [626B]: the IC50 in assay [1] is 5 to 20 µM; in assay [2], 1 to 5 µM.

Regarding `CC1(C)CC(=O)C2=C(C1)Nc1ncc(C(F)F)c(C#N)c1C2(C)c1ccccc1` (single isomer, unassigned) [627A], the IC50 in assay [1] and in assay [2] was 0.1 to 1 µM each time.

Consider `CC1(C)CC(=O)C2=C(C1)Nc1ncc(C(F)F)c(C#N)c1C2(C)c1ccccc1` (single isomer, unassigned) [627B], for which the IC50 in assay [1] lay in the range of 5 to 20 µM; in assay [2], 1 to 5 µM.

These data come from patent US20260103465A1, “GLYCOGEN SYNTHASE KINASE 3 INHIBITORS AND USES THEREOF” (The Broad Institute, Inc., priority 2023, published 2026).
